In brackets after ≈: the same amount, converted by molar mass.
Columns and labels:
Experiment in all cases: ≥ marks a high value that may be exact or a test limit, other limits are often not marked, values filed in µg/mL are converted to µM
[1] = test system: Staphylococcus epidermidis
Candida albicans = test system: Candida albicans
Staphylococcus aureus = test system: Staphylococcus aureus
Escherichia coli = test system: Escherichia coli
Bacillus subtilis = test system: Bacillus subtilis
[2] = test system: Escherichia coli ATCC 25922
Pseudomonas aeruginosa = test system: Pseudomonas aeruginosa
[3] = test system: Staphylococcus aureus ATCC 25923
[4] = test system: Pseudomonas aeruginosa ATCC 27853
[5] = test system: Candida albicans ATCC 2002

Row | SMILES | MIC (Candida albicans) | MIC (Staphylococcus aureus) | MIC (Escherichia coli) | MIC (Bacillus subtilis) | also measured
1 | CC[C@H](C)[C@H](NC(=O)[C@H](CO)NC(=O)[C@@H](NC(=O)[C@H](CCCCN)NC(=O)[C@H](Cc1ccccc1)NC(=O)[C@@H]1CCCN1C(=O)[C@@H](N)CCC(=O)O)[C@@H](C)CC)C(=O)N[C@@H](Cc1cnc[nH]1)C(=O)N[C@@H](CC(C)C)C(=O)NCC(=O)NCC(=O)N[C@@H](Cc1ccc(O)cc1)C(N)=O [EPFKISIHLGGY] |  |  |  |  | MIC [1]: ≥ 220 µM
2 | CC[C@H](C)[C@H](NC(=O)[C@H](CC(=O)O)NC(=O)[C@H](CC(C)C)NC(=O)[C@H](Cc1ccccc1)NC(=O)CN)C(=O)N[C@H](C(=O)N[C@@H](CCCCN)C(=O)NCC(=O)N[C@H](C(=O)NCC(=O)N[C@@H](CCCCN)C(=O)N[C@H](C(=O)N[C@@H](C)C(=O)N[C@@H](CC(C)C)C(=O)NCC(=O)N[C@@H](C)C(=O)N[C@H](C(=O)N[C@@H](CO)C(=O)N[C@@H](CCCCN)C(=O)N[C@@H](CC(C)C)C(=O)N[C@@H](Cc1ccccc1)C(N)=O)C(C)C)C(C)C)C(C)C)C(C)C [GFLDIVKGVGKVALGAVSKLF] | 3.78 µM (≈ 8 µg/mL) | 3.78 µM (≈ 8 µg/mL) | 15.1 µM (≈ 32 µg/mL) |  | 
3 | CC[C@H](C)[C@@H]1NC(=O)[C@H](CCCCN)NC(=O)[C@@H](NC(=O)[C@H](CCCCN)NC(=O)[C@H](CC(C)C)NC(=O)[C@H](CC(N)=O)NC(=O)[C@H](CC(=O)O)NC(=O)[C@H](CC(C)C)NC(=O)[C@H](CC(C)C)NC(=O)[C@@H](NC(=O)[C@@H](NC(=O)[C@H](C)NC(=O)[C@@H](NC(=O)[C@H](CC(N)=O)NC(=O)[C@H](CCCCN)NC(=O)[C@H](C)NC(=O)[C@H](C)NC(=O)[C@H](CC(N)=O)NC(=O)[C@H](CCCCN)NC(=O)[C@H](C)NC(=O)[C@@H](NC(=O)[C@H](CC(=O)O)NC(=O)[C@H](CCSC)NC(=O)[C@H](Cc2ccccc2)NC(=O)CN)[C@@H](C)O)C(C)C)C(C)C)[C@@H](C)O)CSSC[C@@H](C(=O)O)NC(=O)[C@H](C)NC(=O)[C@H](CCCCN)NC(=O)[C@H]([C@@H](C)O)NC1=O [GFMDTAKNAAKNVAVTLLDNLKCKITKAC] | 0.341 µM (≈ 1.05 µg/mL) | 0.681 µM (≈ 2.1 µg/mL) | 1.36 µM (≈ 4.2 µg/mL) | 2.72 µM (≈ 8.39 µg/mL) | 
4 | CC[C@H](C)[C@H](NC(=O)[C@H](CO)NC(=O)CNC(=O)[C@H](CCCN=C(N)N)NC(=O)[C@@H](NC(=O)[C@H](CO)NC(=O)[C@@H](NC(=O)CNC(=O)[C@H](CO)NC(=O)[C@H](CC(C)C)NC(=O)[C@H](CC(C)C)NC(=O)CN)[C@@H](C)O)C(C)C)C(=O)O [GLLSGTSVRGSI] | 7.85 µM (≈ 9 µg/mL) | 15.7 µM (≈ 18 µg/mL) | 31.4 µM (≈ 36 µg/mL) | 15.7 µM (≈ 18 µg/mL) | 
5 | CC[C@H](C)[C@H](N)C(=O)N[C@@H](CC(N)=O)C(=O)N[C@@H](Cc1c[nH]c2ccccc12)C(=O)N[C@@H](CCCCN)C(=O)N[C@@H](CCCCN)C(=O)N[C@H](C(=O)N[C@@H](C)C(=O)N[C@@H](CO)C(=O)N[C@H](C(=O)NCC(=O)N[C@@H](CCCCN)C(=O)N[C@@H](CCC(=O)O)C(=O)N[C@H](C(=O)N[C@@H](CC(C)C)C(=O)N[C@@H](CCCCN)C(=O)N[C@@H](C)C(=O)N[C@H](C(N)=O)[C@@H](C)CC)C(C)C)[C@@H](C)CC)[C@@H](C)CC [INWKKIASIGKEVLKAI] |  |  | 5.5 µM (≈ 10.5 µg/mL) | 27.2 µM (≈ 52 µg/mL) | 
6 | CC[C@H](C)[C@H](N)C(=O)N[C@@H](CC(N)=O)C(=O)N[C@@H](Cc1c[nH]c2ccccc12)C(=O)N[C@@H](CCCCN)C(=O)N[C@@H](CCCCN)C(=O)N[C@H](C(=O)N[C@@H](C)C(=O)N[C@@H](CO)C(=O)N[C@H](C(=O)NCC(=O)N[C@@H](CCCCN)C(=O)N[C@@H](CCC(=O)O)C(=O)N[C@H](C(=O)N[C@@H](CC(C)C)C(N)=O)C(C)C)[C@@H](C)CC)[C@@H](C)CC [INWKKIASIGKEVL] |  |  | 100 µM (≈ 160 µg/mL) | ≥ 100 µM | 
7 | CC[C@H](C)[C@H](NC(=O)[C@H](CC(C)C)NC(=O)[C@@H]1CCCN1C(=O)[C@H](CS)NC(=O)[C@H](CC(C)C)NC(=O)CNC(=O)[C@@H]1CCCN1C(=O)[C@H](CCCCN)NC(=O)[C@H](CCCCN)NC(=O)[C@@H]1CCCN1C(=O)[C@H](CCCN=C(N)N)NC(=O)[C@H](CC(=O)O)NC(=O)[C@@H](N)CCCCN)C(=O)N[C@@H](Cc1c[nH]c2ccccc12)C(=O)N[C@@H](Cc1c[nH]c2ccccc12)C(=O)N[C@@H](CC(C)C)C(=O)N[C@H](C(=O)N[C@H](C(=O)N[C@@H](CCCCN)C(=O)N[C@H](C(=O)NCC(N)=O)C(C)C)[C@@H](C)CC)[C@@H](C)CC [KDRPKKPGLCPLIWWLIIKVG] | 102 µM (≈ 250 µg/mL) | 50.8 µM (≈ 125 µg/mL) | 12.7 µM (≈ 31.2 µg/mL) |  | MIC [2]: 6.35 µM (≈ 15.6 µg/mL); MIC (Pseudomonas aeruginosa): 25.4 µM (≈ 62.5 µg/mL); MIC [3]: 50.8 µM (≈ 125 µg/mL); MIC [4]: 25.4 µM (≈ 62.5 µg/mL)
8 | CC[C@H](C)[C@H](NC(=O)[C@@H](NC(=O)[C@@H](NC(=O)[C@@H]1CCCN1C(=O)[C@H](Cc1c[nH]c2ccccc12)NC(=O)[C@H](Cc1ccccc1)NC(=O)[C@H](CCCN=C(N)N)NC(=O)[C@H](CCCCN)NC(=O)[C@@H](NC(=O)[C@@H](N)CCCN=C(N)N)[C@@H](C)CC)C(C)C)C(C)C)C(=O)N[C@@H](CCCN=C(N)N)C(=O)N[C@H](C(=O)N[C@H](C(=O)N[C@H](C(=O)N[C@@H](C)C(=O)NCC(=O)N[C@@H](Cc1ccc(O)cc1)C(=O)O)C(C)C)C(C)C)[C@@H](C)O [RIKRFWPVVIRTVVAGY] |  |  |  |  | MIC [5]: ≥ 36.4 µM
9 | CC[C@H](C)[C@H](NC(=O)[C@@H](NC(=O)[C@@H](NC(=O)[C@@H]1CCCN1C(=O)[C@H](Cc1c[nH]c2ccccc12)NC(=O)[C@H](Cc1ccccc1)NC(=O)[C@H](CCCN=C(N)N)NC(=O)[C@H](CCCCN)NC(=O)[C@@H](NC(=O)[C@@H](N)CCCN=C(N)N)[C@@H](C)CC)C(C)C)C(C)C)C(=O)N[C@@H](CCCN=C(N)N)C(=O)N[C@H](C(=O)N[C@H](C(=O)N[C@H](C(=O)N[C@@H](C)C(=O)NCC(=O)O)C(C)C)C(C)C)[C@@H](C)O [RIKRFWPVVIRTVVAG] |  |  |  |  | MIC [5]: ≥ 79.1 µM
10 | CC[C@H](C)[C@H](NC(=O)[C@H](CCCCN)NC(=O)[C@H](CS)NC(=O)[C@H](C)NC(=O)[C@@H](NC(=O)[C@H](Cc1ccccc1)NC(=O)CNC(=O)[C@H](CC(C)C)NC(=O)CNC(=O)[C@@H](NC(=O)[C@H](CCCCN)NC(=O)CNC(=O)[C@H](CC(C)C)NC(=O)[C@H](CC(N)=O)NC(=O)[C@H](CCCCN)NC(=O)[C@H](CC(C)C)NC(=O)[C@@H](NC(=O)[C@H](CCCCN)NC(=O)[C@H](CC(C)C)NC(=O)[C@H](CCSC)NC(=O)[C@@H](N)CO)C(C)C)C(C)C)C(C)C)C(=O)N[C@@H](CC(N)=O)C(=O)N[C@@H](CCCCN)C(=O)N[C@@H](CCC(N)=O)C(=O)N[C@@H](CS)C(=O)O [SMLKVLKNLGKVGLGFVACKINKQC] | 40 µM (≈ 108 µg/mL) | 20 µM (≈ 53.8 µg/mL) | 10 µM (≈ 26.9 µg/mL) |  | 
11 | CC[C@H](C)[C@H](NC(=O)[C@H](CCCCN)NC(=O)[C@H](C)NC(=O)[C@H](C)NC(=O)[C@@H](NC(=O)[C@H](Cc1ccccc1)NC(=O)CNC(=O)[C@H](CC(C)C)NC(=O)CNC(=O)[C@@H](NC(=O)[C@H](CCCCN)NC(=O)CNC(=O)[C@H](CC(C)C)NC(=O)[C@H](CC(N)=O)NC(=O)[C@H](CCCCN)NC(=O)[C@H](CC(C)C)NC(=O)[C@@H](NC(=O)[C@H](CO)NC(=O)[C@H](CC(C)C)NC(=O)[C@H](CCSC)NC(=O)[C@@H](N)CO)C(C)C)C(C)C)C(C)C)C(=O)N[C@@H](C)C(=O)N[C@@H](CCCCN)C(=O)N[C@@H](CCC(N)=O)C(=O)N[C@@H](C)C(=O)O [SMLSVLKNLGKVGLGFVAAKIAKQA] | 100 µM (≈ 254 µg/mL) | 100 µM (≈ 254 µg/mL) | 20 µM (≈ 50.9 µg/mL) |  | 
12 | CSCC[C@H](NC(=O)[C@H](CCSC)NC(=O)[C@H](CCCCN)NC(=O)[C@H](CCCCN)NC(=O)CNC(=O)[C@H](CC(C)C)NC(=O)[C@H](CCCCN)NC(=O)[C@H](CC(C)C)NC(=O)[C@H](Cc1c[nH]c2ccccc12)NC(=O)[C@H](CC(N)=O)NC(=O)[C@@H](N)CO)C(=O)N[C@@H](CO)C(=O)N[C@@H](C)C(=O)N[C@@H](CC(C)C)C(N)=O [SNWLKLGKKMMSAL] |  |  | 100 µM (≈ 161 µg/mL) | ≥ 40 µM | 

Source: DBAASP
